According to US9108944B2, “Androgen receptor modulators and uses thereof” (ARAGON PHARMACEUTICALS, INC., priority 2010, dated 2015):
pIC50: −log10 of the molar value.

Assays:
AR-VP16 [1] = target: T1, AR-VP16 (Homo sapiens, UniProt P10275); assay: AR-VP16 DNA Binding Assay, agonist mode (HepG2 cells); type: cell-based; conditions: Emax >20x DMSO control = agonist
T1 sequence (P10275 560-920 limits assumed): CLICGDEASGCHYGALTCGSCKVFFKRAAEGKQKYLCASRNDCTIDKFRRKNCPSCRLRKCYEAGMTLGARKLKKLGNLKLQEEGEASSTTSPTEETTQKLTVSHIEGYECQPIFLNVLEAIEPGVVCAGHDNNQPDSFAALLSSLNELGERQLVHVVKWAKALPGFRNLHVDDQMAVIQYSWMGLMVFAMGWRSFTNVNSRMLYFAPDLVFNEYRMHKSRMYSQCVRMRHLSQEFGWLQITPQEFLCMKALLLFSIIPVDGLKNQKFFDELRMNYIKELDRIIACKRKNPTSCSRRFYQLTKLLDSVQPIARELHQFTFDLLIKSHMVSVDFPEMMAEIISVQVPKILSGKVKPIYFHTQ

AR-VP16 [2] = target: T1, AR-VP16; assay: AR-VP16 DNA Binding Assay, antagonist mode (HepG2 cells, 0.1 nM R1881); type: cell-based
How it was run: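 HepG2 cells transiently transfected with AR-VP16 (Lipofectin), incubated overnight, then treated with compound in RPMI with charcoal-stripped serum. Antagonist mode adds R1881 at 0.1 nM final. Cells lysed after 48 h incubation for read-out.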

Row | Compound | ARVP16 DNA Binding Assay (Agonist mode): Agonist? (AR-VP16 [1]) | pIC50 (AR-VP16 [2])
1 | CN1CCN(CCNC(=O)c2cc(N3C(=S)N(c4cnc(C#N)c(C(F)(F)F)c4)C(=O)C34CCC4)ccc2F)CC1 [Compound 254, 5-(7-(6-Cyano-5-(trifluoromethyl)pyridin-3-yl)-8-oxo-6-thioxo-5,7-diazaspiro[3.4]octan-5-yl)-2-fluoro-N-(2-(4-methylpiperazin-1-yl)ethyl)benzamide] | No (Agonist defined as a compound whose Emax in the ARVP16 DNA Binding Assay (Agonist mode) is >20x DMSO control) | < 6.00
2 | N#Cc1ncc(N2C(=O)C3(CCC3)N(c3ccc(OCCN4CCS(=O)(=O)CC4)c(F)c3)C2=S)cc1C(F)(F)F [Compound 186, 5-(5-(4-(2-(1,1-Dioxidothiomorpholino)ethoxy)-3-fluorophenyl)-8-oxo-6-thioxo-5,7-diazaspiro[3.4]octan-7-yl)-3-(trifluoromethyl)picolinonitrile] | Yes (Agonist defined as a compound whose Emax in the ARVP16 DNA Binding Assay (Agonist mode) is >20x DMSO control) | > 6.00
3 | Cc1cc(N2C(=O)C3(CCC3)N(c3ccc(OCCN4CCN(C)CC4)cc3)C2=S)cnc1C#N [Compound 200, 3-Methyl-5-(5-(4-(2-(4-methylpiperazin-1-yl)ethoxy)phenyl)-8-oxo-6-thioxo-5,7-diazaspiro[3.4]octan-7-yl)picolinonitrile] | Yes (Agonist defined as a compound whose Emax in the ARVP16 DNA Binding Assay (Agonist mode) is >20x DMSO control) | > 6.00
4 | Cc1ccc(N2C(=S)N(c3cnc(C#N)c(C(F)(F)F)c3)C(=O)C23CCC3)cc1 [Compound 22, 5-(8-Oxo-6-thioxo-5-(p-tolyl)-5,7-diazaspiro[3.4]octan-7-yl)-3-(trifluoromethyl)picolinonitrile] | No (Agonist defined as a compound whose Emax in the ARVP16 DNA Binding Assay (Agonist mode) is >20x DMSO control) | > 6.00
5 | N#Cc1ncc(N2C(=O)C3(CCC3)N(c3ccc(C(N)=O)c(F)c3)C2=S)cc1C(F)(F)F [Compound 231, 4-(7-(6-Cyano-5-(trifluoromethyl)pyridin-3-yl)-8-oxo-6-thioxo-5,7-diazaspiro[3.4]octan-5-yl)-2-fluorobenzamide] | No (Agonist defined as a compound whose Emax in the ARVP16 DNA Binding Assay (Agonist mode) is >20x DMSO control) | > 6.00
6 | N#Cc1ncc(N2C(=O)C3(CCC3)N(c3ccc(C(=O)N4CCCC4)c(F)c3)C2=S)cc1C(F)(F)F [Compound 270, 5-(5-(3-Fluoro-4-(pyrrolidine-1-carbonyl)phenyl)-8-oxo-6-thioxo-5,7-diazaspiro[3.4]octan-7-yl)-3-(trifluoromethyl)picolinonitrile] | No (Agonist defined as a compound whose Emax in the ARVP16 DNA Binding Assay (Agonist mode) is >20x DMSO control) | < 6.00
7 | CNC(=O)c1ccc(N2C(=S)N(c3cnc(C#N)c(C)c3)C(=O)C23CCC3)cc1F [Compound 5, 4-(7-(6-Cyano-5-methylpyridin-3-yl)-8-oxo-6-thioxo-5,7-diazaspiro[3.4]octan-5-yl)-2-fluoro-N-methylbenzamide] | No (Agonist defined as a compound whose Emax in the ARVP16 DNA Binding Assay (Agonist mode) is >20x DMSO control) | > 6.00
8 | Cc1cc(N2C(=O)C3(CCC3)N(c3ccc(OC4CCS(=O)(=O)CC4)cc3)C2=S)cnc1C#N [Compound 201, 5-(5-(4-((1,1-Dioxidotetrahydro-2H-thiopyran-4-yl)oxy)phenyl)-8-oxo-6-thioxo-5,7-diazaspiro[3.4]octan-7-yl)-3-methylpicolinonitrile] | No (Agonist defined as a compound whose Emax in the ARVP16 DNA Binding Assay (Agonist mode) is >20x DMSO control) | > 6.00
9 | N#Cc1ncc(N2C(=O)C3(CCC3)N(c3ccc(F)c(C(=O)NCCc4ccccn4)c3)C2=S)cc1C(F)(F)F [Compound 239, 5-(7-(6-Cyano-5-(trifluoromethyl)pyridin-3-yl)-8-oxo-6-thioxo-5,7-diazaspiro[3.4]octan-5-yl)-2-fluoro-N-(2-(pyridin-2-yl)ethyl)benzamide] | No (Agonist defined as a compound whose Emax in the ARVP16 DNA Binding Assay (Agonist mode) is >20x DMSO control) | < 6.00
10 | CN1CCN(CCCOc2cc(N3C(=S)N(c4cnc(C#N)c(C(F)(F)F)c4)C(=O)C34CCC4)ccc2F)CC1 [Compound 167, 5-(5-(4-Fluoro-3-(3-(4-methylpiperazin-1-yl)propoxy)phenyl)-8-oxo-6-thioxo-5,7-diazaspiro[3.4]octan-7-yl)-3-(trifluoromethyl)picolinonitrile] | No (Agonist defined as a compound whose Emax in the ARVP16 DNA Binding Assay (Agonist mode) is >20x DMSO control) | < 6.00
11 | CC(C)NC(=O)c1ccc(N2C(=S)N(c3cnc(C#N)c(C(F)(F)F)c3)C(=O)C23CCC3)cc1F [Compound 279, 4-(7-(6-Cyano-5-(trifluoromethyl)pyridin-3-yl)-8-oxo-6-thioxo-5,7-diazaspiro[3.4]octan-5-yl)-2-fluoro-N-isopropylbenzamide] | No (Agonist defined as a compound whose Emax in the ARVP16 DNA Binding Assay (Agonist mode) is >20x DMSO control) | > 6.00
12 | CC(C)CNC(=O)c1ccc(N2C(=S)N(c3cnc(C#N)c(C(F)(F)F)c3)C(=O)C23CCC3)cc1F [Compound 280, 4-(7-(6-Cyano-5-(trifluoromethyl)pyridin-3-yl)-8-oxo-6-thioxo-5,7-diazaspiro[3.4]octan-5-yl)-2-fluoro-N-isobutylbenzamide] | No (Agonist defined as a compound whose Emax in the ARVP16 DNA Binding Assay (Agonist mode) is >20x DMSO control) | > 6.00
13 | N#Cc1ncc(N2C(=O)C3(CCC3)N(c3ccc(OC4CCOCC4)cc3)C2=S)cc1C(F)(F)F [Compound 198, 5-(8-Oxo-5-(4-((tetrahydro-2H-pyran-4-yl)oxy)phenyl)-6-thioxo-5,7-diazaspiro[3.4]octan-7-yl)-3-(trifluoromethyl)picolinonitrile] | No (Agonist defined as a compound whose Emax in the ARVP16 DNA Binding Assay (Agonist mode) is >20x DMSO control) | > 6.00
14 | N#Cc1ncc(N2C(=O)C3(CCC3)N(c3ccc(F)c(OCCc4ccccn4)c3)C2=S)cc1C(F)(F)F [Compound 158, 5-(5-(4-Fluoro-3-(2-(pyridin-2-yl)ethoxy)phenyl)-8-oxo-6-thioxo-5,7-diazaspiro[3.4]octan-7-yl)-3-(trifluoromethyl)picolinonitrile] | No (Agonist defined as a compound whose Emax in the ARVP16 DNA Binding Assay (Agonist mode) is >20x DMSO control) | < 6.00
15 | N#Cc1ncc(N2C(=O)C3(CCC3)N(c3ccc(OCCCSCCCC(F)(F)C(F)(F)F)c(F)c3)C2=S)cc1C(F)(F)F [Compound 153, 5-(5-(3-Fluoro-4-(3-((4,4,5,5,5-pentafluoropentyl)thio)propoxy)phenyl)-8-oxo-6-thioxo-5,7-diazaspiro[3.4]octan-7-yl)-3-(trifluoromethyl)picolinonitrile] | No (Agonist defined as a compound whose Emax in the ARVP16 DNA Binding Assay (Agonist mode) is >20x DMSO control) | > 6.00
